Assay [1] deals with T1, K^b on the surface of K^b transfected drosophila cells (Mus musculus, UniProt P01901).
T1 construct: expressed in transfected cells; host or cells: Drosophila cells transfected with K^b
T1 sequence (P01901 22-369): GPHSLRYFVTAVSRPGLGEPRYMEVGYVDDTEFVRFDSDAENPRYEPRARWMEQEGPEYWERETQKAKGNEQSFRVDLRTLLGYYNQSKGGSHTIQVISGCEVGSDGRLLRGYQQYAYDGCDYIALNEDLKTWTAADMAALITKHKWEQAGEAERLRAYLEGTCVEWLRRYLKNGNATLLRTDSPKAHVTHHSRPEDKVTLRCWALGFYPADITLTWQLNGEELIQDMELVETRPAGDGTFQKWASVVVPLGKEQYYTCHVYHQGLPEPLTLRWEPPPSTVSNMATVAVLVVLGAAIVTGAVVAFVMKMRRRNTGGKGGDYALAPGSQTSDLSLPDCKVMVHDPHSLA
T1 sequence (P01887 21-119 partner): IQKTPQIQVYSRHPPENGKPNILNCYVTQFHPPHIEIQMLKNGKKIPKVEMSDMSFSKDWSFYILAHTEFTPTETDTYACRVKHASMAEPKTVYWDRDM
Kind of assay: FACS analysis of stabilization of cell surface K^b by peptides. It is filed as cell-based. The procedure:
FACS Analysis. Values from fluorescence activated cell sorter (FACS) analysis showing the relative amounts of K^b on the surface of K^b transfected drosophila cells following an 18-hour incubation with the indicated peptides. […] Median fluorescence values from separate experiments were normalized by subtracting the median fluorescence obtained in the absence of added peptides from each peptide sample and then expressing those values as the percent of the fluorescence obtained with […] (which was examined in all experiments). Peptide binding was also analyzed by the ability to stabilize cell surface K^b molecules. Empty class I molecules are thermolabile, but they can be stabilized by binding appropriate peptides. Peptides were bound to K^b molecules expressed on the surfaces of K^b transfected Drosophila cells. Their relative binding strengths are indicated by their median fluorescence.
On the technique in general: Flow cytometry measures light scatter and fluorescence of single cells or particles in a stream.

Assay [2] addresses T2, K^b (Mus musculus, UniProt P01901).
T2 construct: Soluble K^b was purified from transfected Drosophila cells; made in house; host or cells: transfected Drosophila cells
T2 sequence (P01901 22-305 limits assumed): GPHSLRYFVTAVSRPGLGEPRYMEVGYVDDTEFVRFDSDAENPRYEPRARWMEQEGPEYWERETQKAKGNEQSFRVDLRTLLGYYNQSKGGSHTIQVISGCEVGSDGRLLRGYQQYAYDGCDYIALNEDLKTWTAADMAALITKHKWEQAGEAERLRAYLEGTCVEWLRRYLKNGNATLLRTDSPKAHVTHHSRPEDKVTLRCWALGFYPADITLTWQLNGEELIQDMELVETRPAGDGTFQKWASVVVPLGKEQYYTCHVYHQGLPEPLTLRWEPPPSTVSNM
T2 sequence (P01887 21-119 partner): T1 sequence (P01887 21-119 partner)
To be noted: known immunodominant epitope, characterized previously; read-out: KD (dissociation constant); cited from earlier work.

Assay [3] has as its target T2, K^b. Kind of assay: biochemical. The assay is classed as binding.
Setting [4] is: 18-hour incubation with peptide, 23° C., antibody Y3, median fluorescence normalized to SIINFEKL
The mark [5] stands for this setting: read-out: KD (dissociation constant).

Usually Kd stands for the equilibrium constant for the complex coming apart.

Like-named read-outs stand apart in the source and are kept apart here. Where no end group is shown, it is not given here.

Consider `CC[C@H](C)[C@H](NC(=O)[C@@H](NC(=O)[C@@H](N)CO)[C@@H](C)CC)C(=O)N[C@@H](CC(N)=O)C(=O)N[C@@H](Cc1ccccc1)C(=O)N[C@@H](CCC(=O)O)C(=O)N[C@@H](CCCCN)C(=O)N[C@@H](CC(C)C)C(=O)O` [Peptide 1, reference compound], for which the “FACS Analysis % SIINFEKL (relative amount of K^b on cell surface)” value in assay [1] (setting [4]) stood at 100 % SIINFEKL. Besides, the Kd on K^b [2] is 3 nM.

On K^b [3], AEERYPIL [Peptide 3] showed a Kd of 67000 nM. For the same compound, the “FACS Analysis % SIINFEKL (relative amount of K^b on cell surface)” value in assay [1] (setting [4]) stood at 42 % SIINFEKL.

ASEKMKIL [Peptide 9] came in with a Kd at K^b [3] of 550000 nM. Moreover, in assay [1] (setting [4]), the “FACS Analysis % SIINFEKL (relative amount of K^b on cell surface)” value was 4 % SIINFEKL.

On K^b [3], DHPFLFCI [Peptide 10] came in with a Kd of 47000 nM. For the same compound, the “FACS Analysis % SIINFEKL (relative amount of K^b on cell surface)” value in assay [1] (setting [4]) worked out at 38 % SIINFEKL.

For DVYSFSLA [Peptide 7], binding on K^b [3] was put at a Kd of 70 nM. Further, the “FACS Analysis % SIINFEKL (relative amount of K^b on cell surface)” value in assay [1] (setting [4]) is 65 % SIINFEKL.

Turning to ENIFYCPI [Peptide 11], on K^b [3] (setting [5]), the Kd stood at 94 nM. Further, in assay [1], the “FACS Analysis % SIINFEKL (relative amount of K^b on cell surface)” value was found to be 77.

With GTMSMLVL [Peptide 8], the Kd at K^b [3] was 1200 nM. Besides, the “FACS Analysis % SIINFEKL (relative amount of K^b on cell surface)” value in assay [1] (setting [4]) is given as 0 % SIINFEKL.

Regarding KVVRFDKL [Peptide 5], binding at K^b [3] was put at a Kd of 26 nM. Moreover, the “FACS Analysis % SIINFEKL (relative amount of K^b on cell surface)” value in assay [1] (setting [4]) was 94 % SIINFEKL.

In turn, NAIVFKGL [Peptide 4] came in with a Kd on K^b [3] of 13 nM. Further, the “FACS Analysis % SIINFEKL (relative amount of K^b on cell surface)” value in assay [1] (setting [4]) was found to be 76 % SIINFEKL.

Regarding RGDKLPGFG [Peptide 6], on K^b [3], the Kd came to 550000 nM. The “FACS Analysis % SIINFEKL (relative amount of K^b on cell surface)” value in assay [1] (setting [4]) is given as 30 % SIINFEKL.

For the compound RGYVYQGL [VSV8, reference compound], the Kd at K^b [3] (setting [5]) was 4.1 nM.

In the case of SALAMVYL [Peptide 2], the affinity at K^b [3], expressed as Kd, was 7.1 nM. Further, the “FACS Analysis % SIINFEKL (relative amount of K^b on cell surface)” value in assay [1] (setting [4]) worked out at 100 % SIINFEKL.

The record behind these values is patent US5933819A, “Prediction of relative binding motifs of biologically active peptides and peptide mimetics” (The Scripps Research Institute, priority 1997, dated 1999).
